Tested on: insulin resistant rats
Experiment: Euglycemic insulin clamp in High Fat Diet fed insulin resistant rats after a single oral dose
Type: in vivo, Male Wistar rats
Settings: for EGP (endogenous glucose production) / GIR (glucose infusion rate) / GU (glucose utilization): 4 hrs before clamp, mean ± sem
Experimental: Male Wistar rats were fed a High Fat Diet for at least 4 weeks. Jugular vein and carotid artery cannulations were performed one week prior to the clamp experiment. Test compound (Compound 15) is administered p.o. 4 hrs before the clamp and labeled 3-3H-glucose is infused 1 hr prior to calculated endogenous glucose production (EGP). Insulin is infused at a rate of 0.75 U/kg/hr raising plasma insulin levels to […]. To maintain euglycemia (80 mg/dl), unlabeled glucose is infused at a variable rate and adjusted every 10 minutes.

CCc1ccc(-c2sc(NC(=O)c3ccc(S(=O)(=O)N[C@@H](Cc4ccccc4)C(=O)O)cc3)nc2-c2ccc(Cl)cc2)cc1 [Compound 15, N-{[4-({[4-(4-chlorophenyl)-5-(4-ethylphenyl)-1,3-thiazol-2-yl]amino}carbonyl)phenyl]sulfonyl}phenylalanine]
EGP (endogenous glucose production) (10 mg/kg single oral dose): 1.4 ± 1.8 mg/kg/min | GIR (glucose infusion rate) (10 mg/kg single oral dose): 29.6 ± 5.0 mg/kg/min | GU (glucose utilization) (10 mg/kg single oral dose): 28.3 ± 6.6 mg/kg/min | effect on endogenous glucose production (EGP) (30 mg/kg p.o., result in words): enhanced suppression | effect on glucose infusion rate (GIR) (30 mg/kg p.o., result in words): significantly increased | effect on glucose utilization (GU) (30 mg/kg p.o., result in words): augmented stimulation | EGP (endogenous glucose production) (30 mg/kg single oral dose): 0.16 ± 0.5 mg/kg/min | GIR (glucose infusion rate) (30 mg/kg single oral dose): 30.8 ± 2.2 mg/kg/min | GU (glucose utilization) (30 mg/kg single oral dose): 30.7 ± 2.00 mg/kg/min | EGP (endogenous glucose production) (60 mg/kg single oral dose): 0.77 ± 0.4 mg/kg/min | GIR (glucose infusion rate) (60 mg/kg single oral dose): 38.0 ± 2.2 mg/kg/min | GU (glucose utilization) (60 mg/kg single oral dose): 37.3 ± 2.3 mg/kg/min
